Reference: patent US12516041B2, “Crystal forms of GLP-1R agonists and uses thereof” (QILU REGOR THERAPEUTICS INC., priority 2020, dated 2026)
Values after ≈ are worked out from the molar mass of the structure shown. Read-outs that look alike come from different tables or passages of the source.

Tests used:
Assay type in all cases: physicochemical
[1] = Solubility test in bio-relevant media (SGF, FeSSIF, FaSSIF), HPLC of filtrate, XRPD of filter cake; settings: for solubility at 24 h / solubility at 0.5 h / solubility at 2 h: 37 °C, thermodynamic from solid; for solubility at 24 h: read-out: Solubility (μg/mL) 24 h; for solubility at 0.5 h: read-out: Solubility (μg/mL) 0.5 h; for solubility at 2 h: read-out: Solubility (μg/mL) 2 h
Protocol: (§1) HPLC analysis was performed with an Agilent HPLC 1260 series instrument.
(§2) HPLC Method for Stability and Solubility Testing
The solubility of free acid Form I was tested in bio-relevant media (Simulated Gastric Fluid (SGF), Fasted-State Simulated Intestinal Fluid (FaSSIF) and Fed-State Simulated Intestinal Fluid (FeSSIF)) at 37° C. for up to 24 hours. About 15 mg of the sample was weighed into sample vial, and then 5.0 mL of bio-relevant media was added to make suspension. All suspensions prepared were shaken @ 600 rpm with a QQMSC-100 shaker at 37° C. At 0.5, 2 and 24 hours, about 1000 μL of each suspension was filtered and diluted, and then the filtrate was analyzed by HPLC to test the solubility. The pH of the filtrate was measured, and the filter cake was analyzed by XRPD.

[2] = Dynamic Vapor Sorption (DVS)
Excerpt: Moisture sorption/desorption data was collected on a Vsorp Dynamic Moisture Sorption Analyzer (ProUmid GmbH & Co. KG, Germany). The sample was placed into a tared sample chamber and automatically weighed.
The product obtained from preparation method 1 was characterized by XRPD (FIG. 1), TGA, DSC (FIG. 2), DVS (FIG. 3), and ^1H-NMR.

[3] = Solid-state stability study (HPLC purity, XRPD)
Protocol: XRPD patterns were identified with an X-ray diffractometer (PANalytical Empyrean). The system was equipped with PIXcel^1D detector. Samples were scanned from 3 to 40° 2θ, at a step size of 0.013° 2θ. The tube voltage and current were 45 KV and 40 mA, respectively.
as §1, §2
About 25 mg of free acid Form I was placed at 60° C./capped and 40° C./75% RH (open) conditions for up to 12 days. At day 0 and 7, the sample was dissolved in diluent to prepare 0.5 mg/mL solution for HPLC purity analysis. Solid samples were analyzed by XRPD to check the crystal form at day 12.

solubility at 24 h ([1]; FaSSIF, pH 6.45, fassif, FaSSIF, pH 6.45 (24 h)): 15 µg/mL (≈ 26 µM)
solubility at 0.5 h ([1]; FaSSIF, pH 6.5, fassif, FaSSIF, pH 6.50 (0 h)): ~5 µg/mL (≈ 8.68 µM)
solubility at 2 h ([1]; FaSSIF, pH 6.5, fassif, FaSSIF): 6 µg/mL (≈ 10.4 µM)
solubility at 24 h ([1]; FeSSIF, pH 4.95, fessif, FeSSIF, pH 4.95 (24 h)): 11 µg/mL (≈ 19.1 µM)
solubility at 0.5 h ([1]; FeSSIF, pH 4.99, fessif, FeSSIF, pH 4.99 (0 h)): ~10 µg/mL (≈ 17.4 µM)
solubility at 2 h ([1]; FeSSIF, pH 4.99, fessif, FeSSIF): 17 µg/mL (≈ 29.5 µM)
Solubility in SGF (in words) ([1]; SGF, 37° C.): insoluble
XRPD pattern after solubility study ([1]; bio-relevant media, 37° C., up to 24 hours): not changed
XRPD (24 h) ([1]; filter cake after 24 h in FaSSIF, 37° C.): Unchanged
XRPD (24 h) ([1]; filter cake after 24 h in FeSSIF, 37° C.): Unchanged
XRPD (24 h) ([1]; filter cake after 24 h in SGF, 37° C.): Unchanged
Hygroscopicity (DVS) [2]: Slightly
DVS weight change to 90% RH ([2]; 0 to 90% RH): 0.6%
Crystal form after DVS test ([2]; after DVS test): remained unchanged
DVS weight change 0-80% RH ([2]; from 0 to 80% RH): ~0.3%
Hygroscopicity (DVS) ([2]; listed as crystalline Form I of Compound A free acid): slightly hygroscopic
Hygroscopicity (DVS) ([2]; listed as free acid Form I): slightly hygroscopic
Purity-1 week (Area %) 40° C./75% RH, 1 week ([3]; 40° C./75% RH (open), 1 week, HPLC): 99.56 Area %
XRPD-12 days 40° C./75% RH ([3]; 40° C./75% RH (open), 12 days): Unchanged
Physical and chemical stability (in words) ([3]; 60° C./capped and 40° C./75% RH (open), 12 days): physically and chemically stable
Purity-1 week (Area %) 60° C./Capped, 1 week ([3]; 60° C./capped, 1 week, HPLC): 99.54 Area %
XRPD-12 days 60° C./Capped ([3]; 60° C./capped, 12 days): Unchanged
Initial Purity (Area %) ([3]; day 0, HPLC): 99.58 Area %
Structure (SMILES): O=C(O)c1ccc2nc(Cc3ccc(-c4cccc(OCc5ccc(Cl)cc5F)n4)cc3F)n(C[C@@H]3CCO3)c2c1 [Free Acid Form I, (S)-2-(4-(6-((4-chloro-2-fluorobenzyl)oxy)pyridin-2-yl)-2-fluorobenzyl)-1-(oxetan-2-ylmethyl)-1H-benzo[d]imidazole-6-carboxylic acid]
